Experimental data published in ChEMBL document CHEMBL3244018, “Synthesis and some pharmacological properties (4-beta-(2-thienyl)-L-alanine)oxytocin” (J Med Chem, 1978).
Active and inactive are the calls of the source. The rule behind the calls is not given here. Positions of bridges follow the written chain, without caps; N, C: chain ends. Non-standard residues stand in square brackets, D forms with d. Residues, ends and D or L forms follow the SMILES beside them. 2Thi = N[C@@H](Cc1cccs1)C(=O)O

Legend:
Rattus norvegicus [1] = species: Rattus norvegicus; assay: Uterotonic potency in rat; format: functional
[2] = target: T1, Oxytocin receptor (Rattus norvegicus) (UniProt P70536); assay: Binding affinity to rat oxytocin receptor
T1 sequence (whole entry): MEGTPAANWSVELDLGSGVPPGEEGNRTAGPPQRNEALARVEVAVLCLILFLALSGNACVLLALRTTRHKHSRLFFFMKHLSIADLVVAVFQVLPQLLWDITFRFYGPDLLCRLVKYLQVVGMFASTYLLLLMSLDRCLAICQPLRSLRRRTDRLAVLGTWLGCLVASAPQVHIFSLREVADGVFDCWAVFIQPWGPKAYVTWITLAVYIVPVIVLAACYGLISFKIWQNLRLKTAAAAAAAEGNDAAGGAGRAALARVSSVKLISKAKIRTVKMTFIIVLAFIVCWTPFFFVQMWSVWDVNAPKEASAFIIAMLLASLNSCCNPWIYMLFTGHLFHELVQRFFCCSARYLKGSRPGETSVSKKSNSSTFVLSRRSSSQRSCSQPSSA

[3] = target: T1, Oxytocin receptor (Rattus norvegicus); assay: Intrinsic activity at rat oxytocin receptor relative to oxytocin
[4] = Inhibition of oxytocin receptor in conscious chicken assessed as inhibition of oxytocin-induced vasodepressor response; parameters: species or system Gallus gallus
Rattus norvegicus [5] = species: Rattus norvegicus; assay: Effect on pressor response in rat at 0.1 mg; format: functional
Rattus norvegicus [6] = species: Rattus norvegicus; assay: Antidiuretic activity in rat at 0.1 mg; format: functional, Urine

Structure (SMILES): CC[C@H](C)[C@@H]1NC(=O)[C@H](Cc2ccc(O)cc2)NC(=O)[C@@H](N)CSSC[C@@H](C(=O)N2CCC[C@H]2C(=O)N[C@@H](CC(C)C)C(=O)NCC(N)=O)NC(=O)[C@H](CC(N)=O)NC(=O)[C@H](Cc2cccs2)NC1=O (H-CYI[2Thi]NCPLG-NH2; disulfide 1-6)
- Activity (Rattus norvegicus [1]): 0.51 U/mg
- Activity [2]: inactive
- Intrinsic activity [3]: 64%
- pA2 [4]: 7.44
- Activity (Rattus norvegicus [5]): <0.05 U/mg
- Activity (Rattus norvegicus [6]): <0.05 U/mg
